Experimental data taken from the Deep4Chem optical property database.
Values joined by “and” are separate entries in the source; they are usually repeats but may differ in a detail not shown here. Equal values may be shown once. Blank lines part the entries; values can stand above or below the compound they belong to.

Assay: solvent given as SMILES

absorption maximum (in ClCCl): 348 nm
Compound: CCOC(=O)c1c(-c2cc3cc4c(cc3oc2=O)OC(C)(C)CC4)nn(-c2ccccc2)c1C(=O)OCC

absorption maximum (in C1CCOC1): 416 nm
Compound: CCN(CC)c1ccc(-c2nc3c4ccccc4n(C)c3nc2-c2ccc(B(c3c(C)cc(C)cc3C)c3c(C)cc(C)cc3C)cc2)cc1

absorption maximum (in C1CCOC1): 422 nm
Compound: CCCCCOc1cc2oc(=O)c3c4occc4c4ccc5cccc6c(c1)c2c3c4c56

absorption maximum (in c1ccccc1): 412 nm
Compound: CCOC(=O)c1sc2nc(C)c(CC)c(C#N)c2c1N

absorption maximum (in CC#N): 385 nm | absorption maximum (in ClCCCl): 395 nm
Compound: c1ccc(-c2cc3c(oc4ccccc43)c(-c3ccccc3)[o+]2)cc1

absorption maximum (in ClCCl): 407 nm
Compound: CCCCN(CCCC)c1ccc(C#Cc2cc(C#Cc3ccc(C(F)(F)F)cc3)c(C#Cc3ccc(C(F)(F)F)cc3)cc2C#Cc2ccc(N(CCCC)CCCC)cc2)cc1

Compound: CCC1=C(C)C2=Cc3c4ccccc4c4n3[B-](C)(Oc3ccccc3-4)[N+]2=C1C (stereo not given)
absorption maximum (in CC#N): 616 nm | absorption maximum (in CCCCCC): 621 nm | absorption maximum (in Cc1ccccc1): 625 nm | absorption maximum (in ClCCl): 622 nm

absorption maximum (in ClCCl): 394 nm
Compound: CC(C)(C)c1ccc(-c2cc(-c3ccc(-c4cc(-c5ccc(C(C)(C)C)cc5)c(C(=O)NCc5cccs5)s4)s3)sc2C(=O)NCc2cccs2)cc1

absorption maximum (in ClCCl): 325 nm
Compound: Cc1ccccc1N1c2sc3ccccc3c2Sc2sc3ccccc3c21

absorption maximum (in ClC(Cl)Cl): 675 nm
Compound: CN1C(=CC2=C([O-])C(=CC3=[N+](C)c4ccccc4C3(C)C)C2=C2C(=O)c3ccccc3C2=O)C(C)(C)c2ccccc21

absorption maximum (in ClCCl): 443 nm
Compound: CCCCCCCCCCCCN1C(=O)c2c(c3ccc4cc(-c5ccc(OC)cc5)c(OC)cc4c3c3c2ccc2cc(-c4ccc(OC)cc4)c(OC)cc23)C1=O

Compound: O=C(N/N=C/c1ccccc1O)c1ccccc1
absorption maximum (in C1CCOC1): 334 nm | absorption maximum (in CC#N): 333 nm | absorption maximum (in CC(C)=O): 415 nm | absorption maximum (in CCO): 400 nm | absorption maximum (in CN(C)C=O): 397 nm | absorption maximum (in CS(C)=O): 329 nm | absorption maximum (in ClCCl): 330 nm

absorption maximum (in CC1CCCCC1): 364 nm | absorption maximum (in CC#N): 364 nm | absorption maximum (in CO): 364 nm
Compound: CCN(CC)c1ccc(-c2nc3cc(C(NC(=O)OC(C)(C)C)C(=O)OC)ccc3o2)c(O)c1 (stereo not given)

Compound: COc1ccc(N(c2ccccc2)c2ccc(OC)cc2)cc1
absorption maximum (in Cc1ccccc1): 300 nm

absorption maximum (in CC#N): 339 nm | absorption maximum (in CCCCOCCCC): 341 nm | absorption maximum (in CO): 338 nm
Compound: CC(=O)Nc1ccc2ccc3cccc4ccc1c2c34

absorption maximum (in CC#N): 339 nm
Compound: c1ccc(-n2c(-c3ccc(-n4c5ccccc5c5ccccc54)cc3)nc3nccnc32)cc1

Compound: c1ccc(-c2ccc(-c3nc(-n4c5ccccc5c5ccc6c7ccccc7n(-c7ccccc7)c6c54)nc(-n4c5ccccc5c5ccc6c7ccccc7n(-c7ccccc7)c6c54)n3)cc2)cc1
absorption maximum (in Cc1ccccc1): 403 nm

absorption maximum (in CC#N): 337 nm
Compound: Cc1ccc(-c2ccc(/C=C/c3ccc(Cl)cc3)cn2)nc1

absorption maximum (in C1CCCCC1): 402 nm | absorption maximum (in CC#N): 409 nm
Compound: CN(C)c1ccc(/C=C/c2nc3c(ccc4ccccc43)s2)cc1

Compound: O=C1O[B-]2(OC1=O)OC(c1ccc3ccccc3c1)=CC(c1ccc3ccccc3c1)=[O+]2
absorption maximum (in CC#N): 435 nm | absorption maximum (in ClC(Cl)(Cl)Cl): 438 nm

absorption maximum (in ClCCl): 561 nm
Compound: CC(C)[Si](C#Cc1c2nsnc2c(C#C[Si](C(C)C)(C(C)C)C(C)C)c2nc3c4ccccc4c(=O)c4ccccc4c3nc12)(C(C)C)C(C)C

absorption maximum (in ClCCl): 357 nm
Compound: O=Cc1ccc(C2=Cc3ccccc3P2(=O)c2ccccc2)cc1 (stereo not given)

absorption maximum (in ClCCl): 332 nm
Compound: CC(C)(C)c1ccc(-c2nc3c4ccccc4c4ccccc4c3n2-c2ccc(-c3ccc(N(c4ccccc4)c4ccccc4)cc3)cc2)cc1

Compound: CCN(CC)c1ccc2cc(-c3csc(NC(C)=O)c3C#N)c(=O)oc2c1
absorption maximum (in CO): 404 nm | absorption maximum (in CS(C)=O): 394 nm | absorption maximum (in Cc1ccccc1): 402 nm

absorption maximum (in ClC(Cl)Cl): 344 nm
Compound: FC(F)(F)c1ccc2oc3nc4oc5ccc(N6c7ccccc7Oc7ccccc76)cc5c4cc3c2c1

Compound: CC(C)(C)c1ccc2c(c1)c1cc(C(C)(C)C)ccc1n2-c1cc(C(=O)c2ccncc2)cc(-n2c3ccc(C(C)(C)C)cc3c3cc(C(C)(C)C)ccc32)c1
absorption maximum (in Cc1ccccc1): 396 nm

absorption maximum (in CCO): 375 nm
Compound: Cc1c(C)n2c(COC(=O)c3ccc(F)cc3)c(C)c(=O)n2c1=O

Compound: Cc1cc(C)c(-c2nnc(-c3ccc(-n4c5ccccc5c5ccccc54)cc3)o2)c(C)c1
absorption maximum (in Cc1ccccc1): 340 nm

Compound: CCCCCCCCCCCCNc1cccc2[n+]1[B-](F)(F)n1c(c3cccc4cccc1c43)=N2
absorption maximum (in C1CCOC1): 498 nm | absorption maximum (in CC#N): 493 nm | absorption maximum (in CCCCCC): 496 nm | absorption maximum (in Cc1ccccc1): 500 nm | absorption maximum (in ClCCl): 497 nm and 467 nm

absorption maximum (in C1CCCCC1): 500.5 nm | absorption maximum (in CC#N): 496.5 nm | absorption maximum (in CCO): 497.5 nm | absorption maximum (in CCOC(C)=O): 497 nm | absorption maximum (in CO): 496 nm | absorption maximum (in OCC(F)(F)F): 493 nm
Compound: Cc1ccc(C2=C3C=CC=[N+]3[B-](F)(F)n3cccc32)cc1

Compound: CCn1c2ccccc2c2cc(/C=C/c3cccc(/C=C/c4ccc5c(c4)c4ccccc4n5CC)[n+]3CCCS(=O)(=O)[O-])ccc21
absorption maximum (in C1CCOC1): 460 nm | absorption maximum (in CC#N): 454 nm | absorption maximum (in CC(C)=O): 458 nm | absorption maximum (in Cc1ccccc1): 453 nm

Compound: CC1(C)c2ccccc2N(c2ccccc2)c2ccc(-c3nc(-c4ccccc4)nc(-c4ccccc4)n3)cc21
absorption maximum (in Cc1ccccc1): 389.97 nm

absorption maximum (in ClC(Cl)Cl): 374 nm
Compound: CCCCCCN1C(=O)c2cccc3c(-c4ccc(Cl)s4)ccc(c23)C1=O

absorption maximum (in ClCCl): 341 nm
Compound: COC(=O)C1=C(C(=O)OC)[Se](=O)[C@]23C1=C[C@H](c1ccccc12)c1ccccc13 (stereo not given in full)

absorption maximum (in ClCCl): 590 nm
Compound: CC1=CC(C)=[N+]2C1=C(c1ccc(Br)cc1)c1c(C)cc(/C=C/c3ccc[nH]3)n1[B-]2(F)F

Compound: CN(C)c1ccc(C2=Cc3cccc[n+]3[B-](F)(F)O2)cc1
absorption maximum (in C1CCOC1): 420 nm | absorption maximum (in C1COCCO1): 417 nm | absorption maximum (in CC1CCCCC1): 413 nm | absorption maximum (in CC#N): 417 nm | absorption maximum (in CCOC(C)=O): 416 nm | absorption maximum (in CCOCC): 413 nm | absorption maximum (in CN(C)C=O): 423 nm | absorption maximum (in CO): 418 nm | absorption maximum (in COC(C)=O): 417 nm | absorption maximum (in ClC(Cl)Cl): 426 nm

Compound: CCCCCCc1ccc(-n2c3[n+](c4c5ccccc5c5ccccc5c42)[B-](C)(C)c2ccccc2-3)cc1
absorption maximum (in C1CCOC1): 359 nm | absorption maximum (in CC#N): 359 nm | absorption maximum (in Cc1ccccc1): 361 nm | absorption maximum (in ClCCl): 361 nm

Compound: CCN(CC)c1ccc2cc(-c3ccc(S(C)(=O)=O)cc3)oc(=O)c2c1
absorption maximum (in CC(C)=O): 375 nm | absorption maximum (in CCCCCC): 373 nm | absorption maximum (in CCCCO): 378 nm | absorption maximum (in CCCO): 378 nm | absorption maximum (in CCO): 376 nm | absorption maximum (in CCOC(C)=O): 374 nm | absorption maximum (in CN(C)C=O): 379 nm | absorption maximum (in CO): 376 nm | absorption maximum (in ClC(Cl)Cl): 383 nm

absorption maximum (in C1CCCCC1): 271.81 nm
Compound: COc1ccc(-c2ccc(OC)cc2)cc1

Compound: COc1ccc(-c2sc3c(-c4ccc(OC)cc4)c4n(c3c2-c2ccc(OC)cc2)[B-](F)(F)[N+]2=Cc3c(-c5ccc(OC)cc5)c5sc(-c6ccc(OC)cc6)c(-c6ccc(OC)cc6)c5n3[B-](F)(F)[N+]2=C4)cc1
absorption maximum (in CC#N): 587 nm | absorption maximum (in CCCCCC): 595 nm | absorption maximum (in CN(C)C=O): 593 nm | absorption maximum (in Cc1ccccc1): 610 nm | absorption maximum (in ClCCl): 600 nm

absorption maximum (in ClC(Cl)Cl): 434 nm
Compound: Cc1cccc(C2=Cc3c4ccccc4c4ccccc4[n+]3[B-](F)(F)O2)c1
